Results on 12 compounds are retold here after article PMC8122956, “Development of a Robust High-Throughput Screening Platform for Inhibitors of the Striatal-Enriched Tyrosine Phosphatase (STEP)” (International Journal of Molecular Sciences, 2021).

For orientation: Km means the substrate concentration at which the rate is half of its maximum. By pIC50 is commonly meant −log10 of the IC50, conventionally taken in molar units.

Experiment [1] deals with T1, Human PTP1B catalytic domain (1-300) (Homo sapiens, UniProt P18031).
T1 construct: Human PTP1B catalytic domain (1–300) was cloned into PET-15b; His tag (pET-15b) (N); made in house; host or cells: E. coli (as for STEP46, BL21 (DE3))
T1 sequence (P18031 1-300): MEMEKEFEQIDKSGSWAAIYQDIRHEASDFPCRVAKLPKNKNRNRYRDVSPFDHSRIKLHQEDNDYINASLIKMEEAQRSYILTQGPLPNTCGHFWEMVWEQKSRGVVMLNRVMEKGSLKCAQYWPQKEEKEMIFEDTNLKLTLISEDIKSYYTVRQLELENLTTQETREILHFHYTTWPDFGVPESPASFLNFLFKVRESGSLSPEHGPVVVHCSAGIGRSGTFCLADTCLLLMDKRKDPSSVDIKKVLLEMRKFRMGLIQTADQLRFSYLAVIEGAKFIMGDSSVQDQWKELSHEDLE
The experiment can be described thus: PTP1B Michaelis-Menten kinetic assay with DiFMUP. It counts as biochemical. The following applies: PTP1B 0.5 nM.
Procedure: Human STEP46 and PTP1B activity was measured at room temperature (RT) in a 384-well plate format standard phosphatase fluorescence intensity assay using DiFMUP as a substrate and a total reaction volume of 25 μL. PTP working solutions were prepared at a 0.625 nM concentration (for a final concentration of 0.5 nM) in buffer containing 50 mM Bis-Tris pH 6.0, 50 mM NaCl, 5 mM DTT, and 0.01% Tween® 20. DiFMUP working solutions at 5X final concentration were prepared in 50 mM Bis-Tris pH 6.0, 50 mM NaCl, and 0.01% Tween 20. […] Fluorescence intensity was measured in kinetic mode (every minute for 10 min) using a Tecan Spark® Multimode Microplate Reader (Tecan, Groedig, Austria) with an excitation wavelength of 360 nm and an emission wavelength of 460 nm. The initial rates were determined from the linear progress curves of the PTP reaction. […] Michaelis–Menten plots were generated for each PTP construct, and Michaelis–Menten constants (Km) were calculated using the program GraphPad Prism (version 8, GraphPad Software, Inc., San Diego, CA, USA).

The next experiment concerns the target T2, full-length human STEP46 (Homo sapiens, UniProt P54829).
T2 construct: Codon-optimized human full-length STEP46 cDNA was synthesized; His tag (pET-15b) (N); made in house; host or cells: E. coli BL21 (DE3)
T2 sequence (P54829 173-541 isoform P54829-3 limits assumed): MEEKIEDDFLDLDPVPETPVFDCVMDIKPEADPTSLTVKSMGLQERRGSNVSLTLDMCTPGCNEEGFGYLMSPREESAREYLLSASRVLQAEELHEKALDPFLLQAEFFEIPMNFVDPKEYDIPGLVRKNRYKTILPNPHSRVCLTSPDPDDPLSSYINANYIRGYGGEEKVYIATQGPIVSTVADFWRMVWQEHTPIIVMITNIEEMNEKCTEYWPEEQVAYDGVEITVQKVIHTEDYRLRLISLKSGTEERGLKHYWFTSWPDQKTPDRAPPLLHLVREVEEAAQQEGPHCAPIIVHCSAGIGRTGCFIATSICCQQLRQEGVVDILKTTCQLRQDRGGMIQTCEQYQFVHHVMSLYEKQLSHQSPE
The experiment can be described thus: STEP46 biochemical inhibition assay (DiFMUP phosphatase fluorescence intensity assay). Particulars: powder-confirmed hits, 10-pt dose-response, 0.5 nM STEP46, DiFMUP 3 μM, 20 min preincubation, pH 6.0, RT. The source says:
Employing the established STEP46 DiFMUP assay to determine enzymatic activity, we tested the 72 confirmed hits in 10-pt dose-response biochemical inhibition experiments. […] This rate of biochemically active compounds from confirmed PTS hits was in agreement with our prior experience from a similar PTS screening campaign against the SHP2 phosphatase (unpublished data). Next, we obtained commercial dry powders of the 17 biochemically active hits to confirm their activity from pure, fresh material. Powders were quality controlled using standard ^1H-NMR and LC-MS methods and repurified in cases where purity was determined to be below 95%. Pure powders were then retested in 10-pt dose-response STEP46 inhibition assays. Activity could be confirmed for 10 of the 17 powders.
(§1) Hit compounds were tested at room temperature (RT) in a 384-well plate format standard phosphatase fluorescence intensity assay using DiFMUP as a substrate and a total reaction volume of 25 μL. Compounds or vehicle (DMSO) were spotted in triplicate into a black Greiner FLUOTRAC 200 384-well microplate for a 10-point dose-response assay using the Echo 555 liquid handler. PTP working solutions were prepared at a 0.625 nM concentration (for a final concentration of 0.5 nM) in buffer containing 50 mM Bis-Tris pH 6.0, 50 mM NaCl, 5 mM DTT, and 0.01% Tween 20. DiFMUP working solutions at 5X final concentration were prepared in 50 mM Bis-Tris pH 6.0, 50 mM NaCl, and 0.01% Tween 20. PTP working solution (20 μL) was dispensed into the microplate and incubated with compound for 20 min at RT. […] The reaction was initiated by addition of 5 μL DiFMUP working solutions. Fluorescence intensity was measured in a kinetic mode as described above. IC50 values were calculated from the corrected initial rates by nonlinear regression using the program GraphPad Prism (version 8, GraphPad Software, Inc., San Diego, CA, USA).

The target of experiment [2] is T1, Human PTP1B catalytic domain (1-300). Put plainly: PTP1B biochemical inhibition assay (DiFMUP phosphatase fluorescence intensity assay). Particulars: powder-confirmed hits, 10-pt dose-response, 0.5 nM PTP1B, DiFMUP 25 μM, 20 min preincubation, pH 6.0, RT. The procedure: One of the major issues in prior STEP HTS campaigns using phosphatase activity as a readout was the lack of potent chemical matter with relative selectivity for STEP (PubChem AID: 588,619 and our unpublished data). […] For these assays, we expressed and purified the catalytic domain of PTP1B (1-300) using an approach similar to the one described for STEP46 above. The enzymatic activity of the highly pure PTP1B was assessed by adapting the DiFMUP phosphatase assay. Similar to STEP46, a concentration of 0.5 nM PTP1B was found optimal for kinetic experiments. […] Using DiFMUP at that concentration, we tested all 10 powder-confirmed hits in 10-pt dose-response inhibition assays against PTP1B.
as §1

A further experiment has as its system AD mice. Also on record: method as in PMID 25093460. Particulars: cited from earlier work.

pIC50: −log10 of the molar value.

Regarding `Cc1cc(=O)oc2c(F)c(OP(=O)(O)O)c(F)cc12` [DiFMUP, 6,8-difluoro-4-methylumbelliferyl phosphate], the Km in experiment [1] was determined as 25 µM.
Take `Cc1ccc(Nc2nc(CSc3nnnn3-c3ccccc3)cc(=O)[nH]2)cc1` [SBI-0738]: the pIC50 at full-length human STEP46 is 5.24; in experiment [2], 5.21.
For `Cc1c2c(=O)n(-c3nc4ccccc4s3)[nH]c2cc(=O)n1CCC(C)C` [SBI-0743], the negative logarithm of the IC50 (pIC50) against full-length human STEP46 was 5.26; in experiment [2], 4.66.
In the same order, the values of `O=C(CSc1c[nH]nn1)Nc1ccc(/C=C/c2ccccc2)cc1` [SBI-1359] are 5.15 and 4.55.
For the compound `NC(=O)c1cccc(NC(=O)c2cc3c(ccc4ccccc43)o2)c1` [SBI-2136], the pIC50 is 5.28 on full-length human STEP46 and 4.85 in experiment [2].
For `Nc1oc2cc(O)ccc2c(=O)c1-c1nc2ccccc2s1` [SBI-6066] the same measures were 5.30 and less than 4.00.
As for `Cc1cc(C)cc(C(=O)Nc2ccc(-c3nc4ccccc4[nH]3)cc2)c1` [SBI-6083], the figures for the pIC50 (at full-length human STEP46; in experiment [2]) were 5.27 and less than 4.00, respectively.
On to `O=C(Cc1ccc(Cl)cc1)Nc1ccc(C(=O)Nc2cccc(O)c2)cc1` [SBI-6727], for which the results for the pIC50 (against full-length human STEP46; in experiment [2]) were 4.74 and 4.24, respectively.
In the same order, the values of `N#Cc1sc2nc(-c3ccc4c(c3)OCO4)ccc2c1N` [SBI-7297] are 4.49 and less than 4.00.
In the same order, the values of `COc1ccccc1-c1ccc2c(N)c(C#N)sc2n1` [SBI-8771] are 4.80 and 4.10.
For `Nc1ccc(NCC2CCCO2)c(C(=O)O)c1` (stereo not shown) [SBI-8929] the same measures were 4.48 and 4.70.
Turning to `Nc1cc(C(F)(F)F)cc2c1SSSSS2` [TC-2153], the “Effect on cognitive deficits in AD mice” value with AD mice is on record as “effectively reversed cognitive deficits”.
